From US4652563A, “Vasodilators and β-adrenoceptor antagonists” (Smith Kline & French Laboratories Ltd., priority 1984, dated 1987)
Where a name gives a salt, the structure may show the parent alone. Read-outs that look alike come from different tables or passages of the source. Each block holds one molecule with its values, some of them ahead of it.

Tests used:
β1 -adrenoceptor = experiment: Overall hypotension and β1-adrenoceptor antagonism from the above data; settings: in vivo
Procedure: (§1) Compounds were dosed following dissolution in distilled water or in polyethylene glycol and dilution with 0.9% saline. The compounds were then administered intravenously. The blood pressure and heart rate were monitored directly, from a polythene cannula placed in the carotid artery. The doses required to lower blood pressure by 40 mm Hg, when administered intravenously, were obtained from a dose response graph.
(§2) The doses required to inhibit isoprenaline-induced tachycardia by 50% (ID50) were obtained after intravenous administration.
(§3) Furthermore they have minimal intrinsic sympathomimetic activity as shown by the absence of a tachycardia in spontaneously beating guinea pig right atria. The compound of Example 1 produced a maximal increase of approximately 10% of the maximal isoprenaline induced tachycardia in an anaesthetised ganglion blocked cat.

[1] = Anti-hypertensive activity: fall in blood pressure in anaesthetised rats, intravenous; type: in vivo, rat; settings: from dose response graph; for ED (40 mm Hg): Rattus norvegicus, iv, read-out: dose required to lower blood pressure by 40 mm Hg
Procedure: as §1

β1 -receptors [2] = target: T1, β1 -receptors (Felis catus, UniProt Q9TST6); experiment: β-Adrenoceptor antagonist activity: inhibition of isoprenaline-induced tachycardia in ganglion blocked anaesthetised cats; type: in vivo, cat; settings: for ED50: cat, iv, read-out: ID50 (inhibition of isoprenaline-induced tachycardia by 50%); for ED50 / ID50 (inhibition of isoprenaline-induced tachycardia by 50%): ganglion blocked anaesthetised cats, intravenous
T1 construct: from tissue; host or cells: living anaesthetised cat (in vivo)
From the text: as §2

[3] = Vasodilator activity: increase in blood flow in autoperfused anaesthetised rat hindquarters; type: in vivo; settings: for ED (50% increase): Rattus norvegicus, read-out: dose required to increase hindquarters blood flow by 50%
From the text: The doses required to increase hindquarters blood flow by 50% were obtained.

[4] = Hypotension and aortic blood flow in anaesthetised cats; type: in vivo, cat; settings: 4 μmol Kg^-1 (base) and 7 μmol Kg^-1 (hydrochloride)
[5] = Anti-hypertensive activity in conscious cats, oral; type: in vivo, cat; settings: 19 μmol Kg^-1 (Example 1 base), 16 μmol Kg^-1 (Example 4 methanesulphonate); for changes in heart rate: at least 2 hours
[6] = Intrinsic sympathomimetic activity (tachycardia) in anaesthetised ganglion blocked cat; type: in vivo
From the text: as §3

β1 -receptors [7] = target: T1, β1 -receptors; experiment: β-Adrenoceptor antagonist activity: inhibition of isoprenaline-induced tachycardia in ganglion blocked anaesthetised cats; type: in vivo, cat; settings: prizidilol at doses giving a similar effect
[8] = Observation of toxic effects in conscious spontaneously hypertensive rats, oral; type: in vivo, spontaneously hypertensive rat; settings: doses up to a maximum of 102 μmol Kg^-1
[9] = Blood pressure in conscious spontaneously hypertensive rats, intravenous and oral; type: in vivo, spontaneously hypertensive rat
[10] = system: isolated intact guinea pig trachea; experiment: Bronchodilatation: spontaneous tone of isolated intact guinea pig trachea; settings: bath concentration 1 μg ml^-1
Procedure: The compound of Example 4 (as methanesulphonate) (at a bath concentration of 1 μg ml^-1) caused a 50% reduction in the spontaneous tone of an isolated intact guinea pig trachea, as assessed by the method of Coleman R. A. and Farmer J. B. (1971), J. Pharm.

[11] = administration intra-arterially
[12] = iv, administration intravenously

T1 sequence (Q9TST6 whole entry): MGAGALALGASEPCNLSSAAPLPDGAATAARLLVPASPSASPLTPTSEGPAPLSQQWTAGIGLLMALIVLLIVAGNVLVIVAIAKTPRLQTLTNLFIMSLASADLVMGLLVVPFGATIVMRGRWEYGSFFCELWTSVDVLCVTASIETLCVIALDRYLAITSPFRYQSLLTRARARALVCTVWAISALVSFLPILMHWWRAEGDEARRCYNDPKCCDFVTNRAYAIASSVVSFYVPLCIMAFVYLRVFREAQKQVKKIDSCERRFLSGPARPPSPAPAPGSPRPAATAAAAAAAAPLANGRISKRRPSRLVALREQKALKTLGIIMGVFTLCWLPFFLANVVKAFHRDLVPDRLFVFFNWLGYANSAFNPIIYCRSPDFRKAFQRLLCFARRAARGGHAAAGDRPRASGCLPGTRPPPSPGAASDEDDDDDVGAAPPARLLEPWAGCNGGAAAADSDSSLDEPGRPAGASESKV

ED50 (β1 -receptors [2]): 1.6 µmol/kg
Structure (SMILES): CC1CC(=O)NN=C1c1ccc(NC(=O)CCNC[C@H](O)COc2ccc(CCOCC3CC3)cc2)cc1 (single isomer, unassigned; (-)) [Example 11, (-)-6-[4-[3-[2-(-)-Hydroxy-3-[4-(2-(cyclopropylmethoxy)ethyl)phenoxy]propylamino]propionamido]phenyl]-5-methyl-4,5-dihydro-3(2H)-pyridazione[(-) (-)isomer]]
prolonged hypotension and β1-adrenoceptor antagonism over the same dose range (β1 -adrenoceptor): cause prolonged hypotension and β1 -adrenoceptor antagonism over the same dose range
ED (40 mm Hg) [1]: 2.1 µmol/kg
ED (50% increase) [3, 11]: 1.1 µmol/kg

ED50 (β1 -receptors [2]): 8.63 µmol/kg
Structure (SMILES): CCCc1cc(CCOCC2CC2)ccc1OCC(O)CNCCC(=O)Nc1ccc(C2=NNC(=O)CC2C)cc1 (centres unmarked) [Example 2, 6-[4-[3-[2-Hydroxy-3-[2-n-propyl-4-(2-(cyclopropylmethoxy)ethyl)phenoxy]propylamino]propionamido]phenyl]-5-methyl-4,5-dihydro-3(2H)-pyridazinone]
ED (40 mm Hg) [1]: 3.15 µmol/kg
ED (50% increase) [3, 12]: 1.43 µmol/kg

duration of inhibition of isoprenaline-induced tachycardia (β1 -receptors [7]): short duration of inhibition
Structure (SMILES): CC(C)(C)NCC(O)COc1ccccc1-c1ccc(NN)nn1 (centres unmarked) [Prizidilol, reference compound]
ED (40 mm Hg) [1]: 14 µmol/kg
ED (50% increase) [3, 11]: 10 µmol/kg

The remaining lines, values behind:

Structure (SMILES): CC1CC(=O)NN=C1c1ccc(NC(=O)CCNCC(O)COc2ccc(CCOCC3CC3)cc2)cc1 (centres unmarked) [Example 1 as hydrochloride, 6-[4-[3-[2-Hydroxy-3-[4-(2-(cyclopropylmethoxy)ethyl)phenoxy]propylamino]propionamido]phenyl]-5-methyl-4,5-dihydro-3(2H)-pyridazinone]
prolonged hypotension and β1-adrenoceptor antagonism over the same dose range (β1 -adrenoceptor): cause prolonged hypotension and β1 -adrenoceptor antagonism over the same dose range
dose required to lower blood pressure by 40 mm Hg ([1]; listed as 1, as hydrochloride): 4.0 µmol/kg
ID50 (inhibition of isoprenaline-induced tachycardia by 50%) (β1 -receptors [2]; listed as 1, as hydrochloride): 4.3 µmol/kg
dose required to increase hindquarters blood flow by 50% ([3]; administration intravenously, listed as 1, as hydrochloride): 4.0 µmol/kg

Structure (SMILES): CC1CC(=O)NN=C1c1ccc(NC(=O)CCNCC(O)COc2ccc(CCOCC3CC3)cc2)cc1 (centres unmarked) [Example 1, 6-[4-[3-[2-Hydroxy-3-[4-(2-(cyclopropylmethoxy)ethyl)phenoxy]propylamino]propionamido]phenyl]-5-methyl-4,5-dihydro-3(2H)-pyridazinone]
prolonged hypotension and β1-adrenoceptor antagonism over the same dose range (β1 -adrenoceptor): cause prolonged hypotension and β1 -adrenoceptor antagonism over the same dose range
changes in aortic blood flow [4]: minimal changes in aortic blood flow
hypotension [4]: significant dose-dependent hypotension
period of blood pressure reduction with minimal heart rate change [5]: at least 2 hours
reductions in blood pressure [5]: reductions in blood pressure
changes in heart rate [5]: minimal changes in heart rate
dose required to lower blood pressure by 40 mm Hg ([1]; as base): 8.0 µmol/kg
ID50 (inhibition of isoprenaline-induced tachycardia by 50%) (β1 -receptors [2]; as base): 1.9 µmol/kg
selectivity for β1-receptors (β1 -receptors [2]; in vivo): evidence that this compound has selectivity for β1 -receptors
maximal increase, of the maximal isoprenaline induced tachycardia [6]: approximately 10%
dose required to increase hindquarters blood flow by 50% ([3]; administration intravenously, as base): 11.5 µmol/kg
duration of inhibition of isoprenaline-induced tachycardia (β1 -receptors [7]): prolonged duration of inhibition

Structure (SMILES): Cc1cc(CCOCC2CC2)ccc1OCC(O)CNCCC(=O)Nc1ccc(C2=NNC(=O)CC2C)cc1 (centres unmarked) [Example 3, 6-[4-[3-[2-Hydroxy-3-[2-methyl-4-(2-(cyclopropylmethoxy)ethyl)phenoxy]propylamino]propionamido]phenyl]-5-methyl-4,5-dihydro-3(2H)-pyridazinone]
ED (40 mm Hg) [1]: 2.95 µmol/kg
ED50 (β1 -receptors [2]): 7.84 µmol/kg
ED (50% increase) [3, 12]: 1.95 µmol/kg

Structure (SMILES): CC1CC(=O)NN=C1c1ccc(NC(=O)CCNCC(O)COc2ccc(CCOCC3CC3)cc2)cc1 (centres unmarked) [Example 4, 6-[4-[3-[2-Hydroxy-3-[4-(2-(cyclopropylmethoxy)ethyl)phenoxy]propylamino]propionamido]phenyl]-5-methyl-4,5-dihydro-3(2H)-pyridazinone]
toxic effects [8]: no toxic effects were observed
prolonged hypotension and β1-adrenoceptor antagonism over the same dose range (β1 -adrenoceptor): cause prolonged hypotension and β1 -adrenoceptor antagonism over the same dose range
duration of prolonged, significant reductions in blood pressure (up to and including, post dose) ([9]; intravenous, 3 to 13 μmol Kg^-1): 5 h
fall in blood pressure ([9]; intravenous, three dose levels from 3 to 13 μmol Kg^-1): significant fails in blood pressure
duration of prolonged, significant reductions in blood pressure (up to and including, post dose) ([9]; oral, 25 to 102 μmol Kg^-1): 5 h
hypotensive effect ([9]; oral, three doses from 25 to 102 μmol Kg^-1): significant hypotensive effect
period of blood pressure reduction with minimal heart rate change [5]: at least 2 hours
reductions in blood pressure [5]: reductions in blood pressure
changes in heart rate [5]: minimal changes in heart rate
dose required to lower blood pressure by 40 mm Hg ([1]; as methanesulphonate): 2.8 µmol/kg
ID50 (inhibition of isoprenaline-induced tachycardia by 50%) (β1 -receptors [2]; as methanesulphonate): 1.4 µmol/kg
ED (50% increase) [3, 11]: 1.7 µmol/kg
duration of vasodilatation ([3]; autoperfused anaesthetised rat hindquarters): prolonged duration of vasodilatation
inhibition of the reduction in tracheal tone by propanolol [10]: not inhibited by propanolol
reduction in spontaneous tone of trachea [10]: 50%
